pKi: −log10 of the molar value.
Target: T1, LHRH rat pituitary receptor (Rattus norvegicus, UniProt P30969)
T1 construct: from tissue; host or cells: rat pituitary
T1 sequence (P30969 1-327): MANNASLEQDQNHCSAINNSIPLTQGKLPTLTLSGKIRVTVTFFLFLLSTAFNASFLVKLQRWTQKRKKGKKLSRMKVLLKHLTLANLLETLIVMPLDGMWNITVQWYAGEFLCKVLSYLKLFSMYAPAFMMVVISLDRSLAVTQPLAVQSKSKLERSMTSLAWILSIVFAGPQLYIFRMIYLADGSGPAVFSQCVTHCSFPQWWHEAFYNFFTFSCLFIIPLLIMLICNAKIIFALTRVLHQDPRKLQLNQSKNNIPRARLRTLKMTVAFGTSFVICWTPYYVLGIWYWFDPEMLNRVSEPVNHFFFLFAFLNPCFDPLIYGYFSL
Assay: LHRH rat pituitary receptor binding (pKI)
Details: receptor binding affinity, negative logarithm of the equilibrium dissociation constants
Experimental: Representative compounds of the present invention were evaluated in in vitro tests for LHRH rat pituitary receptor binding (pKI) and for LH inhibition from rat pituitary cells for antagonist potency (pA2). The tests employed the methods detailed in F. Haviv, et al. J. Med. Chem., 32: 2340-2344 (1989). The receptor binding affinity (pKI) is the negative logarithm of the equilibrium dissociation constants.

Row | SMILES | pKi | p KI
1 | CCCN(C(C)C)[C@H]1C[C@@H](C)O[C@@H](O[C@@H]2[C@@H](C)[C@H](OC(=O)N3C(=O)OC[C@@H]3C)[C@@H](C)C(=O)O[C@H](CC)[C@@]3(C)OC(=O)N(CCc4ccc(Cl)c(Cl)c4)[C@@H]3[C@@H](C)C(=O)[C@H](C)C[C@@]2(C)OC)[C@@H]1O [Example 21, 11-Deoxy-11-[carboxy(3,4-dichlorophenethyl)amino]-3-O-[4-(S)-methyl-oxazolidin-2-one]carbamoyl-5-O-(3'-bis-N-desmethyl-3'-N-n-propyl-3'-N-isopropyl)desosaminyl-6-O-methyl-erythronolide A 11,12-(cyclic carbamate)] | 9.61 | 
2 | CC[C@H]1OC(=O)[C@H](C)[C@@H](OC(=O)N2C(=O)OC[C@@H]2C)[C@H](C)[C@@H](O[C@@H]2O[C@H](C)C[C@H](N(C)C(C)C)[C@H]2O)[C@](C)(OC)C[C@@H](C)C(=O)[C@H](C)[C@H]2N(CCc3ccc(F)cc3)C(=O)O[C@]12C [Example 32, 11-Deoxy-11-[carboxy(4-fluorophenethyl)amino]-3-O-[4-(S)-methyl-oxazolidin-2-one]carbamoyl-5-O-(3'-N-desmethyl-3'-N-isopropyl)desosaminyl-6-O-methyl-erythronolide A 11,12-(cyclic carbamate)] | 9.81 | 
3 | CCCN(C)[C@H]1C[C@@H](C)O[C@@H](O[C@@H]2[C@@H](C)[C@H](OC(=O)N3C(=O)OC[C@@H]3C)[C@@H](C)C(=O)O[C@H](CC)[C@@]3(C)OC(=O)N(CCc4ccc(Cl)cc4)[C@@H]3[C@@H](C)C(=O)[C@H](C)C[C@@]2(C)OC)[C@@H]1O [Example 27, 11-Deoxy-11-carboxy(4-chlorophenethyl)amino]-3-O-[4-(S)-methyl-oxazolidin-2-one]carbamoyl-5-O-(3'-N-desmethyl-3'-N-n-propyl)desosaminyl-6-O-methyl-erythronolide A 11,12-(cyclic carbamate)] |  | 9.60
4 | CC[C@H]1OC(=O)[C@H](C)[C@@H](OC(=O)N2C(=O)OC[C@@H]2C)[C@H](C)[C@@H](O[C@@H]2O[C@H](C)C[C@H](N(C)CC3CC3)[C@H]2O)[C@](C)(OC)C[C@@H](C)C(=O)[C@H](C)[C@H]2N(CCc3ccc(F)cc3)C(=O)O[C@]12C [Example 28, 11-Deoxy-11-[carboxy(4-fluorophenethyl)amino]-3-O-[4-(S)-methyl-oxazolidin-2-one]carbamoyl-5-O-(3'-N-desmethyl-3'-N-cyclopropylmethyl)desosaminyl-6-O-methyl-erythronolide A 11,12-(cyclic carbamate)] | 9.50 | 
5 | CC[C@H]1OC(=O)[C@H](C)[C@@H](OC(=O)N2C(=O)OC[C@@H]2C)[C@H](C)[C@@H](O[C@@H]2O[C@H](C)C[C@H](N(CC3CC3)CC3CC3)[C@H]2O)[C@](C)(OC)C[C@@H](C)C(=O)[C@H](C)[C@H]2N(CCc3ccc(Cl)c(Cl)c3)C(=O)O[C@]12C [Example 42, 11-Deoxy-11-[carboxy(3,4-dichlorophenethyl)amino]-3-O-[4-(S)-methyl-oxazolidin-2-one]carbamoyl-5-O-(3'-bis-N-desmethyl-3'-bis-N-cyclopropylmethyl)desosaminyl-6-O-methyl-erythronolide A 11,12-(cyclic carbamate)] | 9.18 | 
6 | CCCN(C)[C@H]1C[C@@H](C)O[C@@H](O[C@@H]2[C@@H](C)[C@H](OC(=O)N3C(=O)OC[C@@H]3C)[C@@H](C)C(=O)O[C@H](CC)[C@@]3(C)OC(=O)N(CCc4ccc(F)cc4)[C@@H]3[C@@H](C)C(=O)[C@H](C)C[C@@]2(C)OC)[C@@H]1O [Example 31, 11-Deoxy-11-[carboxy(4-fluorophenethyl)amino]-3-O-[4-(S)-methyl-oxazolidin-2-one]carbamoyl-5-O-(3'-N-desmethyl-3'-N-n-propyl)desosaminyl-6-O-methyl-erythronolide A 11,12-(cyclic carbamate)] | 9.02 | 
7 | CC[C@H]1OC(=O)[C@H](C)[C@@H](OC(=O)N2COC[C@H]2C)[C@H](C)[C@@H](O[C@@H]2O[C@H](C)C[C@H](N(C)C(C)C)[C@H]2O)[C@](C)(OC)C[C@@H](C)C(=O)[C@H](C)[C@H]2N(CCc3ccc(Cl)cc3)C(=O)O[C@]12C [Example 8, 11-Deoxy-11-[carboxy(4-chlorophenethyl)amino]-5-O-(3'-N-desmethyl-3'-N-isopropyl)desosaminyl-3-O-[4-(R)-methyl-oxazolidine]carbamoyl-6-O-methyl-erythronolide A 11,12-(cyclic carbamate)] | 7.93 | 
8 | CC[C@H]1OC(=O)[C@H](C)[C@@H](OC(=O)N2C(=O)OC[C@@H]2C)[C@H](C)[C@@H](O[C@@H]2O[C@H](C)C[C@H](NC(C)C)[C@H]2O)[C@](C)(OC)C[C@@H](C)C(=O)[C@H](C)[C@H]2N(CCc3ccc(Cl)cc3)C(=O)O[C@]12C [Example 7, 11-Deoxy-11-[carboxy(4-chlorophenethyl)amino]-5-O-(3'-bis-N-desmethyl-3'-N-isopropyl)desosaminyl-3-O-[4-(S)-methyl-oxazolidin-2-one]carbamoyl-6-O-methyl-erythronolide A 11,12-(cyclic carbamate)] | 8.45 | 
9 | CC[C@H]1OC(=O)[C@H](C)[C@@H](OC(=O)N2C(=O)OC[C@@H]2C)[C@H](C)[C@@H](O[C@@H]2O[C@H](C)C[C@H](N(C)CC(C)C)[C@H]2O)[C@](C)(OC)C[C@@H](C)C(=O)[C@H](C)[C@H]2N(CCc3ccc(Cl)c(Cl)c3)C(=O)O[C@]12C [Example 17, 11-Deoxy-11-[carboxy(3,4-dichlorophenethyl)amino]-3-O-[4-(S)-methyl-oxazolidin-2-one]carbamoyl-5-O-(3'-N-desmethyl-3'-N-isobutyl)desosaminyl-6-O-methyl-erythronolide A 11,12-(cyclic carbamate)] | 9.25 | 

The remaining compounds from weak to strong by pKi, led by results:

Row | pKi | p KI | SMILES
10 | 8.17 |  | CC[C@H]1COC(=O)N1C(=O)O[C@H]1[C@H](C)[C@@H](O[C@@H]2O[C@H](C)C[C@H](N(C)CC3CC3)[C@H]2O)[C@](C)(OC)C[C@@H](C)C(=O)[C@H](C)[C@H]2N(CCc3ccc(Cl)c(Cl)c3)C(=O)O[C@]2(C)[C@@H](CC)OC(=O)[C@@H]1C [Example 38, 11-Deoxy-11-[carboxy(3,4-dichlorophenethyl)amino]-3-O-[4-(S)-ethyl-oxazolidin-2-one]carbamoyl-5-O-(3'-N-desmethyl-3'-N-cyclopropylmethyl)desosaminyl-6-O-methyl-erythronolide A 11,12-(cyclic carbamate)]
11 | 8.27 |  | CC[C@H]1OC(=O)[C@H](C)[C@@H](OC(=O)N2C(=O)OC[C@H]2C)[C@H](C)[C@@H](O[C@@H]2O[C@H](C)C[C@H](N(C)CC3CC3)[C@H]2O)[C@](C)(OC)C[C@@H](C)C(=O)[C@H](C)[C@H]2N(CCc3ccc(Cl)c(Cl)c3)C(=O)O[C@]12C [Example 37, 11-Deoxy-11-[carboxy(3,4-dichlorophenethyl)amino]-3-O-[4-(R)-methyl-oxazolidin-2-one]carbamoyl-5-O-(3'-N-desmethyl-3'-N-cyclopropylmethyl)desosaminyl-6-O-methyl-erythronolide A 11,12-(cyclic carbamate)]
12 | 8.84 |  | CC[C@H]1OC(=O)[C@H](C)[C@@H](OC(=O)N2C(=O)OC[C@@H]2C)[C@H](C)[C@@H](O[C@@H]2O[C@H](C)C[C@H](N(C)CC3CC3)[C@H]2O)[C@](C)(OC)C[C@@H](C)C(=O)[C@H](C)[C@H]2N(CCc3ccc(Cl)cc3)C(=O)O[C@]12C [Example 23, 11-Deoxy-11-[carboxy(4-chlorophenethyl)amino]-3-O-[4-(S)-methyl-oxazolidin-2-one]carbamoyl-5-O-(3'-N-desmethyl-3'-N-cyclopropylmethyl)desosaminyl-6-O-methyl-erythronolide A 11,12-(cyclic carbamate)]
13 | 9.50 |  | CC[C@H]1OC(=O)[C@H](C)[C@@H](OC(=O)N2C(=O)OC[C@@H]2C)[C@H](C)[C@@H](O[C@@H]2O[C@H](C)C[C@H](N(C)CC3(C)CC3)[C@H]2O)[C@](C)(OC)C[C@@H](C)C(=O)[C@H](C)[C@H]2N(CCc3ccc(F)c(Cl)c3)C(=O)O[C@]12C [Example 55, 11-Deoxy-11-[carboxy(3-chloro-4-fluorophenethyl)amino]-3-O-[4-(S)-methyl-oxazolidin-2-one]carbamoyl-5-O-[3'-N-desmethyl-3'-N-(1-methyl-cyclopropyl)methyl]desosaminyl-6-O-methyl-erythronolide A 11,12-(cyclic carbamate)]
14 | 9.92 |  | CC[C@H]1OC(=O)[C@H](C)[C@@H](OC(=O)N2C(=O)OC[C@@H]2C)[C@H](C)[C@@H](O[C@@H]2O[C@H](C)C[C@H](N(CC3CC3)C(C)C)[C@H]2O)[C@](C)(OC)C[C@@H](C)C(=O)[C@H](C)[C@H]2N(CCc3ccc(F)c(Cl)c3)C(=O)O[C@]12C [Example 56, 11-Deoxy-11-[carboxy(3-chloro-4-fluorophenethyl)amino]-3-O-[4-(S)-methyl-oxazolidin-2-one]carbamoyl-5-O-(3'-bis-N-desmethyl-3'-N-cyclopropylmethyl-3'-N-isopropyl)desosaminyl-6-O-methyl-erythronolide A 11,12-(cyclic carbamate)]
15 | 9.98 |  | CC[C@H]1OC(=O)[C@H](C)[C@@H](OC(=O)N2C(=O)OC[C@@H]2C)[C@H](C)[C@@H](O[C@@H]2O[C@H](C)C[C@H](N(C)C3CCC3)[C@H]2O)[C@](C)(OC)C[C@@H](C)C(=O)[C@H](C)[C@H]2N(CCc3ccc(F)cc3)C(=O)O[C@]12C [Example 29, 11-Deoxy-11-[carboxy(4-fluorophenethyl)amino]-3-O-[4-(S)-methyl-oxazolidin-2-one]carbamoyl-5-O-(3'-N-desmethyl-3'-N-cyclobutyl)desosaminyl-6-O-methyl-erythronolide A 11,12-(cyclic carbamate)]

— US6020521A, “Macrolide LHRH antagonists” (Abbott Laboratories, priority 1998, dated 2000)
